Assay results published in ChEMBL document CHEMBL5346863, “Discovery of substituted benzyloxy-benzylamine inhibitors of acetyltransferase Eis and their anti-mycobacterial activity” (Eur J Med Chem, 2022).
In brackets after ≈: the same amount, converted by molar mass. Activity calls are given as the source filed them. The rule behind the calls is not given here.

Experiments:
Mycobacterium avium = assay: Antibacterial activity against Mycobacterium avium ATCC 25291 assessed as bacterial growth inhibition incubated for 2 to 3 weeks by resazurin dye based assay; assay type: functional; conditions: time 2-3 weeks
[1] = system: Mycobacterium tuberculosis; assay: Antibacterial activity against Mycobacterium tuberculosis K204 assessed as MIC of kanamycin A at 54.8 uM incubated for 24 hrs followed by kanamycin A addition measured after 6 days by alamarblue dye based assay; assay type: functional, organism-based; conditions: time 7.0 day
[2] = system: Mycobacterium tuberculosis; assay: Antibacterial activity against Mycobacterium tuberculosis H37Ra assessed as bacterial growth inhibition incubated 2 to 3 weeks by resazurin dye based assay; assay type: functional; conditions: time 2-3 weeks
[3] = system: Mycobacterium tuberculosis; assay: Antibacterial activity against Mycobacterium tuberculosis mc2 6230 assessed as bacterial growth inhibition incubated 2 to 3 weeks by resazurin dye based assay; assay type: functional; conditions: time 2-3 weeks
[4] = system: Mycobacterium tuberculosis; assay: Antibacterial activity against Mycobacterium tuberculosis H37Rv assessed as MIC of kanamycin A at 100 uM incubated for 24 hrs followed by kanamycin A addition measured after 6 days by alamarblue dye based assay; assay type: functional; conditions: for Activity: time 7.0 day; for MIC: 168 h, time 7 day
[5] = system: Mycobacterium tuberculosis; assay: Antibacterial activity against Mycobacterium tuberculosis H37Rv assessed as MIC of kanamycin A at 54.8 uM incubated for 24 hrs followed by kanamycin A addition measured after 6 days by alamarblue dye based assay; assay type: functional, organism-based; conditions: time 7.0 day
[6] = system: Mycobacterium intracellulare; assay: Antibacterial activity against Mycobacterium intracellulare ATCC 13950 assessed as bacterial growth inhibition incubated for 2 to 3 weeks by resazurin dye based assay; assay type: functional; conditions: time 2-3 weeks
[7] = system: Mycobacteroides abscessus; assay: Antibacterial activity against Mycobacterium abscessus ATCC 19977 assessed as bacterial growth inhibition incubated for 2 to 3 weeks by resazurin dye based assay; assay type: functional; conditions: time 2-3 weeks
N-acetyltransferase Eis = molecular target: T1, N-acetyltransferase Eis (Mycobacterium tuberculosis (strain ATCC 25618 / H37Rv), UniProt P9WFK7); assay: Inhibition of wild-type Mycobacterium tuberculosis Eis expressed in Escherichia coli BL21(DE3) cells incubated for 5 mins by Ellman's method
T1 sequence (P9WFK7 whole entry): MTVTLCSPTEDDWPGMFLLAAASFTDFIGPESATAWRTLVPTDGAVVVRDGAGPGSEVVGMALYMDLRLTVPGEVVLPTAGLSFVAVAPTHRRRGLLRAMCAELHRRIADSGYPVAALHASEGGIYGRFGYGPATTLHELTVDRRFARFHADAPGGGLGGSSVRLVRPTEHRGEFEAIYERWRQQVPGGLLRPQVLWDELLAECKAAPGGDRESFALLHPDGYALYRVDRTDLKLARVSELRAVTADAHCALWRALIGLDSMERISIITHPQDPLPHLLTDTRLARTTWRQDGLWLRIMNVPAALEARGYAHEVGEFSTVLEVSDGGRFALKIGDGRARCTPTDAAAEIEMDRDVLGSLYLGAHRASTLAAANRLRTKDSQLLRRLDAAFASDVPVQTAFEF

[8] = system: Mycolicibacterium smegmatis; assay: Antibacterial activity against Mycobacterium smegmatis mc2 122 assessed as bacterial growth inhibition incubated for 2 to 3 weeks by resazurin dye based assay; assay type: functional; conditions: time 2-3 weeks
[9] = system: Mycobacterium parascrofulaceum; assay: Antibacterial activity against Mycobacterium parascrofulaceum ATCC BAA-614 assessed as bacterial growth inhibition incubated for 2 to 3 weeks by resazurin dye based assay; assay type: functional; conditions: time 2-3 weeks
[10] = system: Mycobacterium tuberculosis; assay: Antibacterial activity against Mycobacterium tuberculosis K204 assessed as MIC of kanamycin A at 71.7 uM incubated for 24 hrs followed by kanamycin A addition measured after 6 days by alamarblue dye based assay; assay type: functional, organism-based; conditions: time 7.0 day
[11] = system: Mycobacterium tuberculosis; assay: Antibacterial activity against Mycobacterium tuberculosis H37Rv assessed as MIC of kanamycin A at 71.7 uM incubated for 24 hrs followed by kanamycin A addition measured after 6 days by alamarblue dye based assay; assay type: functional, organism-based; conditions: time 7.0 day
HEK293 = assay: Cytotoxicity against HEK293 cells upto 12.5 uM incubated for 24 hrs by resazurin dye based cell viability assay; assay type: toxicity; conditions: human, hek293, 24 h
J774.1 = assay: Cytotoxicity against mouse J774.1 cells upto 12.5 uM incubated for 24 hrs by resazurin dye based cell viability assay; assay type: toxicity; conditions: j774.1, 24 h
A549 = assay: Cytotoxicity against human A549 cells upto 12.5 uM incubated for 24 hrs by resazurin dye based cell viability assay; assay type: toxicity; conditions: a549, 24 h

Row | Compound | MIC (Mycobacterium avium) | Activity [1] | MIC [2] | MIC [3] | Activity [4] | Activity [5] | MIC [6] | MIC [7] | IC50 (N-acetyltransferase Eis) | MIC [8] | MIC [9] | MIC [4] | Activity [10] | Activity [11] | Activity (HEK293) | Activity (J774.1) | Activity (A549)
1 | Clc1ccc(COc2cccc(CNCc3ccncc3)c2)cc1 | > 62.5 µM | Active | 31.3 µM (≈ 10.6 µg/mL) | 50 µM (≈ 16.9 µg/mL) | Active | Active | 31.3 µM (≈ 10.6 µg/mL) | > 62.5 µM | ~20 µM |  |  |  |  |  |  |  | 
2 | CC(C)c1ccc(COc2ccc(CNCc3ccccc3)cc2)cc1 | 15.6 µM (≈ 5.39 µg/mL) |  | ≤ 0.5 µM | 0.78 µM (≈ 0.269 µg/mL) |  |  | 2 µM (≈ 0.691 µg/mL) | 7.8 µM (≈ 2.69 µg/mL) | 1.4 µM | 3.9 µM (≈ 1.35 µg/mL) |  |  |  |  |  |  | 
3 | c1ccc(CNCc2ccc(OCc3ccc(-c4ccccc4)cc3)cc2)cc1 | > 62.5 µM |  | 2 µM (≈ 0.759 µg/mL) | 12.5 µM (≈ 4.74 µg/mL) |  |  | 7.8 µM (≈ 2.96 µg/mL) | 7.8 µM (≈ 2.96 µg/mL) | > 200 µM |  | 15.6 µM (≈ 5.92 µg/mL) |  |  |  |  |  | 
4 | c1ccc(COc2ccccc2CNCc2cccnc2)cc1 | > 62.5 µM |  | > 250 µM | > 100 µM |  |  | > 62.5 µM | > 62.5 µM | ~50 µM | > 62.5 µM | > 62.5 µM | 2.5 µg/mL |  |  |  |  | 
5 | c1ccc(CNCc2ccc(OCc3ccccc3)cc2)cc1 | 62.5 µM (≈ 19 µg/mL) |  | 62.5 µM (≈ 19 µg/mL) | 100 µM (≈ 30.3 µg/mL) |  |  | 15.6 µM (≈ 4.73 µg/mL) | > 62.5 µM | > 200 µM |  | 3.9 µM (≈ 1.18 µg/mL) |  |  |  |  |  | 
6 | Fc1ccc(COc2ccc(CNCc3cccnc3)cc2)cc1 | > 62.5 µM |  | 31.3 µM (≈ 10.1 µg/mL) | 50 µM (≈ 16.1 µg/mL) | Active |  | 31.3 µM (≈ 10.1 µg/mL) | 31.3 µM (≈ 10.1 µg/mL) | 3.9 µM |  |  |  | Active | Active |  |  | 
7 | Brc1ccccc1COc1ccc(CNCc2ccccc2)cc1 | 15.6 µM (≈ 5.96 µg/mL) |  | 3.9 µM (≈ 1.49 µg/mL) | 100 µM (≈ 38.2 µg/mL) |  |  | 3.9 µM (≈ 1.49 µg/mL) | 31.3 µM (≈ 12 µg/mL) | ~8 µM | 1 µM (≈ 0.382 µg/mL) | 3.9 µM (≈ 1.49 µg/mL) |  |  |  |  |  | 
8 | c1ccc(COc2ccc(CNCc3cccnc3)cc2)cc1 | 31.3 µM (≈ 9.53 µg/mL) |  | 31.3 µM (≈ 9.53 µg/mL) | 100 µM (≈ 30.4 µg/mL) |  |  | 31.3 µM (≈ 9.53 µg/mL) | > 62.5 µM | ~40 µM | > 62.5 µM |  |  |  |  |  |  | 
9 | Brc1ccc(COc2ccccc2CNCc2ccncc2)cc1 | > 62.5 µM |  |  | 25 µM (≈ 9.58 µg/mL) |  |  |  | > 62.5 µM | 4.3 µM | > 62.5 µM |  | ≤ 1.25 µg/mL |  |  |  |  | 
10 | Clc1cccc(COc2ccccc2CNCc2ccccc2)c1 | > 62.5 µM |  | 31.3 µM (≈ 10.6 µg/mL) | 50 µM (≈ 16.9 µg/mL) | Active |  |  | 31.3 µM (≈ 10.6 µg/mL) | 6.5 µM | 62.5 µM (≈ 21.1 µg/mL) |  |  |  |  | Non-Toxic | Non-Toxic | Non-Toxic
11 | Clc1ccc(COc2cccc(CNCc3ccccc3)c2)cc1 |  |  | 15.6 µM (≈ 5.27 µg/mL) | 12.5 µM (≈ 4.22 µg/mL) |  |  |  | 31.3 µM (≈ 10.6 µg/mL) | 5.4 µM |  |  |  |  |  |  |  | 
12 | Fc1ccc(COc2cccc(CNCc3ccncc3)c2)cc1 | > 62.5 µM |  | 31.3 µM (≈ 10.1 µg/mL) | 100 µM (≈ 32.2 µg/mL) | Active |  | > 62.5 µM | > 62.5 µM | 14 µM | > 62.5 µM | > 62.5 µM |  |  |  |  |  | 
13 | Clc1ccc(COc2ccccc2CNCc2ccccc2)cc1 | > 62.5 µM |  | 31.3 µM (≈ 10.6 µg/mL) | 50 µM (≈ 16.9 µg/mL) | Active |  | 31.3 µM (≈ 10.6 µg/mL) |  | 5.4 µM | 31.3 µM (≈ 10.6 µg/mL) | 31.3 µM (≈ 10.6 µg/mL) |  |  |  | Non-Toxic | Non-Toxic | Non-Toxic
14 | Fc1ccc(COc2ccc(CNCc3ccccc3)cc2)cc1 | > 62.5 µM |  | > 250 µM | > 100 µM |  |  | > 62.5 µM | > 62.5 µM | > 200 µM | > 62.5 µM | > 62.5 µM |  |  |  |  |  | 
